From ChEMBL document CHEMBL1201862, “PubChem BioAssay data set” (2004)
Active and inactive are the calls of the source.

Experiments:
[1] = target: T1, Histone-lysine N-methyltransferase NSD2 (Homo sapiens, UniProt O96028); type: biochemical
T1 sequence (O96028 whole entry): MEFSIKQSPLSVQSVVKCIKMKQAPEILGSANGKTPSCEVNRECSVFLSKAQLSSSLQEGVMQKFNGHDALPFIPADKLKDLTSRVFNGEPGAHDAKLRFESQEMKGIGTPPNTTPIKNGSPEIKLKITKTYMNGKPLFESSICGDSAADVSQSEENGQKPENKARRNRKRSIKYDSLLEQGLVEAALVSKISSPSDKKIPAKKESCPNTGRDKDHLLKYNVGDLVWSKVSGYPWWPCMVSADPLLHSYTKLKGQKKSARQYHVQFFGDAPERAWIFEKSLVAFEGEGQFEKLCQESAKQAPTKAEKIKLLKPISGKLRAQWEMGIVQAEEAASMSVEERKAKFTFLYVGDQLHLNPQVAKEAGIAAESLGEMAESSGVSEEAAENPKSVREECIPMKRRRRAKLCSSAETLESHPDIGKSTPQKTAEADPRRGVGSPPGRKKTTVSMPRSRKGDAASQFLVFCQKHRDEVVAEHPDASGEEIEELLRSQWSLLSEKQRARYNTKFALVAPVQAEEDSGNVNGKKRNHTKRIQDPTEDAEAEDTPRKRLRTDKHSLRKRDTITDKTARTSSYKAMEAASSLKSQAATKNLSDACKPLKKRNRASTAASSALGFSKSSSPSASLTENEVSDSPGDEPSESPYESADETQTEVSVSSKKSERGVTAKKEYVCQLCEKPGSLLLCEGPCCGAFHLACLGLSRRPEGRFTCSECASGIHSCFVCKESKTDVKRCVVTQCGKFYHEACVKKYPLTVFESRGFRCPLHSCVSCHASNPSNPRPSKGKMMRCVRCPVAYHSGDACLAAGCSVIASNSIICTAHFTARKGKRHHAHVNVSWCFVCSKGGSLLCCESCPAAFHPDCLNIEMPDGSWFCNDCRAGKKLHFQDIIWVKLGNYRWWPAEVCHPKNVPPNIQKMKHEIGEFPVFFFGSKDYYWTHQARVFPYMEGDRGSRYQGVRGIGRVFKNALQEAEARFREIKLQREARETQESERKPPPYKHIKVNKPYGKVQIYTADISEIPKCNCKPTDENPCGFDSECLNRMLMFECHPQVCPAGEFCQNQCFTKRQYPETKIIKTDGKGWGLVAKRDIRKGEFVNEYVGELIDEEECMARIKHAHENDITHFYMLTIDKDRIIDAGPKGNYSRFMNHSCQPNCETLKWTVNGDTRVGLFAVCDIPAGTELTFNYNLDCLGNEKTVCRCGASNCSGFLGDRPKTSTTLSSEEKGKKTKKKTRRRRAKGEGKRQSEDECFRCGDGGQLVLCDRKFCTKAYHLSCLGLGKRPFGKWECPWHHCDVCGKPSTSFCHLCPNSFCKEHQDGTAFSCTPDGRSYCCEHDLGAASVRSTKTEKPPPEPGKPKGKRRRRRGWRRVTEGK

Caspase-3 = target: T2, Caspase-3 (Homo sapiens, UniProt P42574); test: SAR Analysis of small molecule inhibitors of Sentrin-specific proteases (SENPs) using a Caspase-3 Selectivity assay. [Related pubchem assays (depositor defined):AID2540, AID2599, AID434973, AID489001]; type: functional
T2 sequence (P42574 whole entry): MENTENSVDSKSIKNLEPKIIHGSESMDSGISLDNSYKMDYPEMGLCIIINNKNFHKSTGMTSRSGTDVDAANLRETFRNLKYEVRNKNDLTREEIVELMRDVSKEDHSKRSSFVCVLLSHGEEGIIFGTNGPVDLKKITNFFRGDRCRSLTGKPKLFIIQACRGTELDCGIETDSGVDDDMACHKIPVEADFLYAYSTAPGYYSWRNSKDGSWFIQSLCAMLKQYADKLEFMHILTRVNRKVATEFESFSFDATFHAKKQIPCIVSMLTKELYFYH

[2] = viability of HCT116 lacking mutant beta-catenin – cell-based, human colon tumor, dose response (AID 1045); type: functional;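 note: HCT116 colon tumor cells with beta catenin knocked out; cells exposed to compound for 60 hours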
[3] = target: Serine/threonine-protein phosphatase PP1-alpha catalytic subunit (Homo sapiens, UniProt P62136); test: inhibition of protein phosphatase 1 activity – biochemical, fluorescence, dose response (AID 2394)
Serine/threonine-protein phosphatase PP1-alpha catalytic subunit, sequence (P62136 whole entry): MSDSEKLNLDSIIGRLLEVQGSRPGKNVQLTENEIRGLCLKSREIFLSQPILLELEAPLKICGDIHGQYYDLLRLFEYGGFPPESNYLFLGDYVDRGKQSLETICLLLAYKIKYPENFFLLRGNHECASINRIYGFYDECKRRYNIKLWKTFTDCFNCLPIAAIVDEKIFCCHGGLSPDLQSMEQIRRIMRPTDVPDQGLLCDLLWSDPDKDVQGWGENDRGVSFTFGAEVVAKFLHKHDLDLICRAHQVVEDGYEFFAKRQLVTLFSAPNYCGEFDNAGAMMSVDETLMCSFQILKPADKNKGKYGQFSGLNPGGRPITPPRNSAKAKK

[4] = target: T3, Apoptotic protease-activating factor 1 (Homo sapiens, UniProt O14727); type: functional
T3 sequence (O14727 whole entry): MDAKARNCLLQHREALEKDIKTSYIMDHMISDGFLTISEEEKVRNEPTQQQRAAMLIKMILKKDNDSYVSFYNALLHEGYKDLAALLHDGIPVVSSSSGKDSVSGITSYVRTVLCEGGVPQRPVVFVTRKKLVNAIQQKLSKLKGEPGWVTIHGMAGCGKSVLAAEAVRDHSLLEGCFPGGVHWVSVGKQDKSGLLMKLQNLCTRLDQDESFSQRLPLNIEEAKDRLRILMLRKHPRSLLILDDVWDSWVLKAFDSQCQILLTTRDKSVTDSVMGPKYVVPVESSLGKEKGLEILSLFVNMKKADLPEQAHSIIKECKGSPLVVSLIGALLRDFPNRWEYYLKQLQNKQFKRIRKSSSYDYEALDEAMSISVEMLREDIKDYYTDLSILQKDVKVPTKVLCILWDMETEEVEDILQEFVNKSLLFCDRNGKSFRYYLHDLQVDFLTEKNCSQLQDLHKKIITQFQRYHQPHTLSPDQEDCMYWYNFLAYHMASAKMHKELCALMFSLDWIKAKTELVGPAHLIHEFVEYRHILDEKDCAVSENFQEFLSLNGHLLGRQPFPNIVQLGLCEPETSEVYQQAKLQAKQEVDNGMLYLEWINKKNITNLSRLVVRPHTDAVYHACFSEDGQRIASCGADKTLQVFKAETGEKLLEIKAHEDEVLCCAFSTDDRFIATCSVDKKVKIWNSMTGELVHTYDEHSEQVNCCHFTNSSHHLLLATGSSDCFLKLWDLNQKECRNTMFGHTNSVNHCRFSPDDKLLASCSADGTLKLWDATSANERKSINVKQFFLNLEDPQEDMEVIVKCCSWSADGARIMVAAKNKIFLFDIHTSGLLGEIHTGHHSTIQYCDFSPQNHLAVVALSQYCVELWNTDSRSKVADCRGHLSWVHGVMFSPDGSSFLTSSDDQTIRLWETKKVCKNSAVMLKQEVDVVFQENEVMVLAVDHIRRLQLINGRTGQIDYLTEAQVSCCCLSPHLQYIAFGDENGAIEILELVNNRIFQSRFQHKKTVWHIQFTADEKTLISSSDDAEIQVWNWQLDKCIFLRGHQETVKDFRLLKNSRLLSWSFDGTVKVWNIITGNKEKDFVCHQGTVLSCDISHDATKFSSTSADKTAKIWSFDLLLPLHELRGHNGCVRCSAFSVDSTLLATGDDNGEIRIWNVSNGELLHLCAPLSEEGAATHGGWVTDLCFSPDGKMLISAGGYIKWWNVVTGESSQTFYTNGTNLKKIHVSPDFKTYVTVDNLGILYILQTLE

[5] = viability of PTEN-deleted HCT116 cells – cell-based, HCT116 PTEN knockout, dose response (AID 1047); type: functional;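 note: HCT116 colon tumor cells with PTEN knocked out; cells exposed to compound for 60 hours before readout; potency for loss of cell viability measured by luminescence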

With `CCOC(=O)C1=C(COC(=O)c2ccc([N+](=O)[O-])s2)NC(=O)NC1C` (stereo unspecified) the AC50 [1] was 5.86 µM (active).
For `Oc1cccc(/C=N/Nc2cc(N3CCCC3)nc(N3CCCC3)n2)c1`, the IC50 (Caspase-3) was > 99 µM (inactive), the EC50 [2] was 18.8 µM (active) and the IC50 [3] was 21.6 µM (not active). For the same molecule, the IC50 [4] was 1.84 µM (active) and the EC50 [5] was 20.3 µM (active).
